# Source: US10815457B2, “Active CXCR4+ immune cells and methods for their production and use” (UNIVERSITY OF PITTSBURGH—OF THE COMMONWEALTH SYSTEM OF …, priority 2014, dated 2020)
# “Also recorded” adds a separate entry of the source.
# Experiments:
# CXCR4 on NK cells = assay: CXCR4 expression on IL-12+IL-15-activated NK cells, by flow cytometry; assay type: cell-based; details: overnight with IL-12p70 (20 ng/ml) and IL-15 (20 ng/ml), 200 μM CoCl2
# Experimental: Negatively Isolated (EasySep) NK cells were cultured overnight with NK cell activators, IL-12p70 (20 ng/ml) and IL-15 (20 ng/ml), in absence or presence of 200 μM CoCl2 (Hypoxia mimic; HIF1α activator). Absolute numbers (A) and percentage (B) of CXCR4 NK cells are calculated by flow cytometry and are depicted in the figure.
# [1] = system: CXCR4+/GZMB+ CD8+ T cells; assay: FACS staining for CXCR4 and GZMB in ex vivo induced CTLs exposed to a hypoxia mimic; assay type: cell-based, human
# [2] = system: CXCL12-responsive GZMB+ CD8+ T cells; assay: Chemotaxis of GZMB+ CD8+ T cells to recombinant CXCL12 (transwell); assay type: cell-based, human; details: 50 ng/ml CXCL12; cells primed with CD3/CD28 + IL-12 or type-1 polarized DCs, then DMOG
Structure (SMILES),CXCR4 expression on NK cells (absolute numbers and percentage) (CXCR4 on NK cells),"CXCR4 expression (CXCR4+/GZMB+ double positive CD8+ T cells) ([1]; CD3-CD28 beads +/- IL-12 (5 ng/ml) 6 days or type-1 polarized DCs, then 3 days with 200 μM DMOG)","intracellular GZMB expression in arising effector cells ([1]; CD8+ T cells primed in type-1-polarizing conditions, DMOG)",responsiveness to CXCL12 (migration of GZMB+ CD8+ T cells) [2]
"[Cl][Co][Cl] [CoCl2, cobalt chloride]",increases CXCR4 expression,,,
"COC(=O)CNC(=O)C(=O)OC [DMOG, dimethyloxalylglycine]",,promote high levels of CXCR4; also recorded: increases CXCR4 expression,without affecting the intracellular GZMB expression,highest migration of GZMB^+ CTL; also recorded: increases CXCR4 expression and responsiveness to CXCL12
